The values below come from US10301280B2 (Plexxikon Inc., priority 2012, dated 2019).

In one assay the target is c-kit mutant D816V (Homo sapiens (Human), UniProt P10721, D816V/DEL694-753). As to the kind of experiment: c-Kit mutant D816V biochemical assay (AlphaScreen). Particulars: c-kit D816V biochemical inhibitory activity. Here is the method:
The c-kit mutant D816V (or kinase domain thereof) is an active kinase in AlphaScreen. IC50 values are determined with respect to inhibition of c-Kit mutant D816V kinase activity, where inhibition of phosphorylation of a peptide substrate is measured as a function of compound concentration. Compounds to be tested were dissolved in DMSO to a concentration of 20 mM. These were diluted 30 μl into 120 μl of DMSO (4 mM) and 1 μl was added to an assay plate. These were then serially diluted 1:3 (50 μl to 100 μl DMSO) for a total of 8 points. Plates were prepared such that each kinase reaction is 20 μl in 1× kinase buffer (25 mM HEPES, pH 7.2, 8 mM MgCl2, 2 mM MnCl2, 50 mM NaCl, 0.01% Brij, 1 mM DTT, 0.01% BSA), 5% DMSO and 10 μM ATP. Substrate was 30 nM biotin-(E4Y)10 (EMD Millipore, Cat#12-440). C-kit mutant D816V kinase was at 0.75 ng per sample. After incubation of the kinase reaction for 30 minutes at room temperature, 5 μl of donor beads (Streptavidin coated beads (Perkin Elmer Life Science) final concentration 7.5 μg/ml) in stop buffer (25 mM Hepes pH 7.5, 100 mM EDTA, 0.01% BSA) was added, the sample was mixed and incubated for 20 minutes at room temperature before adding 5 μl of acceptor beads (PY20 coated beads (Perkin Elmer Life Science) final concentration 7.5 ug/ml) in stop buffer. The samples were incubated for 60 minutes at room temperature and the signal per well was read on EnVision reader. Phosphorylated substrate results in binding of the PY20 antibody and association of the donor and acceptor beads such that signal correlates with kinase activity. The signal vs. compound concentration was used to determine the IC50.
Recombinant c-kit mutant D816V (residues 551-934, kinase insertion domain residues 694-753 deleted) with a 6x-histidine N-terminal tag was expressed in E. coli Arctic Express (DE3) RIL (Stratagene). Cells were grown in Terrific Broth (TB) media to an OD600 of 0.6 at 37° C. at which temperature was reduced to 10° C., protein was induced with 1.0 mM IPTG for 18 hours and harvested by centrifugation at 8000×g for 20 minutes. Cells were re-suspended in 0.1M KPO4 pH 8.0, 250 mM NaCl, 10% Glycerol, 0.75% NP-40, 25 mM Imidazole, 5 mM BME with 0.2 mg/ml Lysosyme, 2.0 mM PMSF, 25 μg/ml DNAse I, incubated in ice for 30 minutes and lyzed with a cell disruptor (MicroFluidics). The lysate was clarified by centrifugation at 20,000×g for 2 hours. The protein was captured with Talon resin (Clontech). Contaminating proteins were washed off with 25 mM Tris-HCl pH 8.3, 250 mM NaCl, 15% Glycerol, 1% Triton X-100, and protein eluted using 100 mM EDTA. The protein was further purified using Gel Filtration column 26/600 Superdex 200 (GE) in 50 mM Tris-HCl, pH 8.0, 250 mM NaCl, 15% Glycerol, 5 mM BME. The protein was aliquoted and flash-frozen in liquid Nitrogen.
Background: Bead proximity is the source of the signal in Alpha formats.

In assay [1] the test system is BaF3-FL KIT D816V or BaF3-FL KIT V560G/D816V cell line. As to the kind of experiment: Cell-based assays of c-Kit mutant kinase activity (cell growth, ATPlite). Particulars: at least one of the c-kit cell assays of Example 26. The essentials:
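IC50 derived from ATP-content luminescence (ATPlite) after three-day compound exposure at 37° C., 5% CO2. Cells: BaF3 rendered growth-dependent on full-length human KIT D816V or V560G/D816V, 1×10^4 per well, RPMI plus 10% FBS; 8 points, 1:3 steps, maximum 10 μM final, 0.2% DMSO.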

pIC50: −log10 of the molar value. Some results are limits rather than exact numbers.

Broadly, the IC50 is the concentration that inhibits the measured activity by half. Low values mean inhibition by little substance, high ones a need for much substance. Broadly, the pIC50 is −log10 of the IC50, conventionally taken in molar units. High values mean a low IC50, low ones a high IC50.

Chain of c-kit mutant D816V (P10721 other isoform, or with tags, fused parts or gaps D816V/del 694-753): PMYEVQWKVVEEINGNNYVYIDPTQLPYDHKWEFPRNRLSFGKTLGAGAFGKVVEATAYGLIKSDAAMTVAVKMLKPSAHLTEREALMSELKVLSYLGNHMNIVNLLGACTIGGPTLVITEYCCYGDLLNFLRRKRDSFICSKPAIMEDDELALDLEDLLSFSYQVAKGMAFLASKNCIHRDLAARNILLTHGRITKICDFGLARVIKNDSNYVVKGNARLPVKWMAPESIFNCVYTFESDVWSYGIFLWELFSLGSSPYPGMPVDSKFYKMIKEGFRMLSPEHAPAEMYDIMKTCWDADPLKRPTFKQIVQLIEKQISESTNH

For the compound `Cc1n[nH]c(C(=O)Nc2cnc3[nH]c(C#CCF)cc3c2)c1C` [P-2063, N-[2-(3-fluoroprop-1-ynyl)-1H-pyrrolo[2,3-b]pyridin-5-yl]-3,4-dimethyl-1H-pyrazole-5-carboxamide], the half-maximal inhibitory concentration (IC50) against c-kit mutant D816V was in the range of 0.0001 to 1 µM. Besides, the pIC50 in assay [1] was over 5.00.
In turn, `Cc1n[nH]c(C(=O)Nc2cnc3[nH]c(-c4ccnc(C(=O)NC5CC5)c4)cc3c2)c1C` [P-2175, N-cyclopropyl-4-[5-[(3,4-dimethyl-1H-pyrazole-5-carbonyl)amino]-1H-pyrrolo[2,3-b]pyridin-2-yl]pyridine-2-carboxamide] yielded a half-inhibitory concentration (IC50) on c-kit mutant D816V of 0.0001 to 1 µM. In addition, in assay [1], the pIC50 is over 5.00.
In the same order, the values of `COc1ccc(Cl)c(-c2cc3cc(NC(=O)c4[nH]nc(C)c4C)cnc3[nH]2)c1` [P-2077, N-[2-(2-chloro-5-methoxy-phenyl)-1H-pyrrolo[2,3-b]pyridin-5-yl]-3,4-dimethyl-1H-pyrazole-5-carboxamide] are 1 to 10 µM and over 5.00.
`Cc1n[nH]c(C(=O)Nc2cnc3[nH]nc(-c4ccc(F)cc4)c3c2)c1C` [P-2041, N-(3-(4-fluorophenyl)-1H-pyrazolo[3,4-b]pyridin-5-yl)-3,4-dimethyl-1H-pyrazole-5-carboxamide] displayed an IC50 at c-kit mutant D816V of 0.0001 to 1 µM. The compound further showed a pIC50 in assay [1] of over 5.00.
In the case of `Cc1n[nH]c(C(=O)Nc2cnc3[nH]c(-c4cnc(C5CC5)nc4)cc3c2)c1C` [P-2155, N-[2-(2-cyclopropylpyrimidin-5-yl)-1H-pyrrolo[2,3-b]pyridin-5-yl]-3,4-dimethyl-1H-pyrazole-5-carboxamide], the 50% inhibitory concentration (IC50) against c-kit mutant D816V fell in the range of 0.0001 to 1 µM. This compound showed a pIC50 in assay [1] of over 5.00.
Consider `Cc1n[nH]c(C(=O)Nc2cnc3[nH]c(I)cc3c2)c1C` [P-2188, N-(2-iodo-1H-pyrrolo[2,3-b]pyridin-5-yl)-3,4-dimethyl-1H-pyrazole-5-carboxamide], for which, at c-kit mutant D816V, the IC50 lay within 1 to 10 µM. The compound further showed a pIC50 in assay [1] of over 5.00.
For `COc1ccc(-c2cc3cc(NC(=O)c4[nH]nc(C)c4C)cnc3[nH]2)c(Cl)c1` [P-2075, N-[2-(2-chloro-4-methoxy-phenyl)-1H-pyrrolo[2,3-b]pyridin-5-yl]-3,4-dimethyl-1H-pyrazole-5-carboxamide] the same measures were 0.0001 to 1 µM and over 5.00.
`Cc1n[nH]c(C(=O)Nc2cnc3[nH]c(-c4ccccc4F)nc3c2)c1C` [P-2152, N-[2-(2-fluorophenyl)-3H-imidazo[4,5-b]pyridin-6-yl]-3,4-dimethyl-1H-pyrazole-5-carboxamide] came in with a half-maximal inhibitory concentration (IC50) on c-kit mutant D816V of 0.0001 to 1 µM. Also, the pIC50 in assay [1] was over 5.00.
For `Cc1n[nH]c(C(=O)Nc2cnc3[nH]c(-c4cccc(OCCN5CCOCC5)c4)cc3c2)c1C` [P-2066, 3,4-dimethyl-N-[2-[3-(2-morpholinoethoxy)phenyl]-1H-pyrrolo[2,3-b]pyridin-5-yl]-1H-pyrazole-5-carboxamide] the same measures were 0.0001 to 1 µM and over 5.00.
In the same order, the values of `COc1ccc(-c2cc3cc(NC(=O)c4[nH]nc(C)c4C)cnc3[nH]2)c(C)n1` [P-2169, N-[2-(6-methoxy-2-methyl-3-pyridyl)-1H-pyrrolo[2,3-b]pyridin-5-yl]-3,4-dimethyl-1H-pyrazole-5-carboxamide] are 0.0001 to 1 µM and over 5.00.
For `Cc1n[nH]c(C(=O)Nc2cnc3[nH]c(-c4cnc(NC5CC5)nc4)cc3c2)c1C` [P-2157, N-[2-[2-(cyclopropylamino)pyrimidin-5-yl]-1H-pyrrolo[2,3-b]pyridin-5-yl]-3,4-dimethyl-1H-pyrazole-5-carboxamide] the same measures were 0.0001 to 1 µM and over 5.00.
With `Cc1cc2ncc(NC(=O)c3n[nH]c(C)c3C)cn2n1` [P-2114, 4,5-dimethyl-N-(2-methylpyrazolo[1,5-a]pyrimidin-6-yl)-1H-pyrazole-3-carboxamide], at c-kit mutant D816V, the 50% inhibitory concentration (IC50) fell in the range of 1 to 10 µM. In addition, the pIC50 in assay [1] is over 5.00.
For `Cc1n[nH]c(C(=O)Nc2cnc3[nH]c(-c4ccc(Cl)cc4)cc3c2)c1C` [P-2122, N-[2-(4-chlorophenyl)-1H-pyrrolo[2,3-b]pyridin-5-yl]-3,4-dimethyl-1H-pyrazole-5-carboxamide] the same measures were 0.0001 to 1 µM and over 5.00.
For `Cc1n[nH]c(C(=O)Nc2cnc3[nH]c(-c4ccc(OCC5(C)COC5)cc4)cc3c2)c1C` [P-2149, 3,4-dimethyl-N-[2-[4-[(3-methyloxetan-3-yl)methoxy]phenyl]-1H-pyrrolo[2,3-b]pyridin-5-yl]-1H-pyrazole-5-carboxamide] the same measures were 0.0001 to 1 µM and over 5.00.
For `Cc1n[nH]c(C(=O)Nc2cnc3[nH]c(-c4cccc(C(=O)NCC(C)C)c4)cc3c2)c1C` [P-2276, N-[2-[3-(isobutylcarbamoyl)phenyl]-1H-pyrrolo[2,3-b]pyridin-5-yl]-3,4-dimethyl-1H-pyrazole-5-carboxamide] the same measures were 0.0001 to 1 µM and over 5.00.
In turn, `CCOc1ncc(-c2cc3cc(NC(=O)c4[nH]nc(C)c4C)cnc3[nH]2)cn1` [P-2153, N-[2-(2-ethoxypyrimidin-5-yl)-1H-pyrrolo[2,3-b]pyridin-5-yl]-3,4-dimethyl-1H-pyrazole-5-carboxamide] returned an IC50 against c-kit mutant D816V of 0.0001 to 1 µM. In assay [1], this compound showed a pIC50 of over 5.00.
For `Cc1n[nH]c(C(=O)Nc2cnc3[nH]c(-c4ccccc4)nc3c2)c1Cl` [P-2150, 4-chloro-3-methyl-N-(2-phenyl-3H-imidazo[4,5-b]pyridin-6-yl)-1H-pyrazole-5-carboxamide] the same measures were 0.0001 to 1 µM and over 5.00.
In the same order, the values of `O=C(Nc1cnc2[nH]c(-c3ccc(F)cc3)cc2c1)c1cc(C(F)F)n[nH]1` [P-2172, 3-(difluoromethyl)-N-[2-(4-fluorophenyl)-1H-pyrrolo[2,3-b]pyridin-5-yl]-1H-pyrazole-5-carboxamide] are 1 to 10 µM and over 5.00.
Compound `COc1ccncc1-c1cc2cc(NC(=O)c3[nH]nc(C)c3C)cnc2[nH]1` [P-2185, N-[2-(4-methoxy-3-pyridyl)-1H-pyrrolo[2,3-b]pyridin-5-yl]-3,4-dimethyl-1H-pyrazole-5-carboxamide] had an IC50 against c-kit mutant D816V of 0.0001 to 1 µM. Also, the pIC50 in assay [1] is over 5.00.
On c-kit mutant D816V, `COc1ccc(-c2cc3cc(NC(=O)c4[nH]nc(C)c4C)cnc3[nH]2)c(F)c1` [P-2076, N-[2-(2-fluoro-4-methoxy-phenyl)-1H-pyrrolo[2,3-b]pyridin-5-yl]-3,4-dimethyl-1H-pyrazole-5-carboxamide] returned a 50% inhibitory concentration (IC50) of 0.0001 to 1 µM. The same compound showed a pIC50 in assay [1] of over 5.00.
`CCc1cc(C(=O)Nc2cnc3[nH]c(-c4ccc(F)cc4)cc3c2)[nH]n1` [P-2159, 3-ethyl-N-[2-(4-fluorophenyl)-1H-pyrrolo[2,3-b]pyridin-5-yl]-1H-pyrazole-5-carboxamide] came in with a half-inhibitory concentration (IC50) against c-kit mutant D816V of 0.0001 to 1 µM. Moreover, the negative-log IC50 (pIC50) in assay [1] is over 5.00.
In the same order, the values of `Cc1n[nH]c(C(=O)Nc2cnc3[nH]c(-c4ccc(F)nc4)cc3c2)c1C` [P-2269, N-[2-(6-fluoro-3-pyridyl)-1H-pyrrolo[2,3-b]pyridin-5-yl]-3,4-dimethyl-1H-pyrazole-5-carboxamide] are 0.0001 to 1 µM and over 5.00.
